This is an account of results in US20230159463A1, “BENZONITRIC HETEROCYCLIC COMPOUND, PREPARATION METHOD THEREFOR AND USE THEREOF” (SHANGHAI ZHONGZE THERAPEUTICS, CO. LTD., priority 2020, published 2023).

Molecules are shown by their SMILES.

In one data set the target is T1, HDAC1 (Homo sapiens, UniProt Q13547).
T1 construct: purchased Biovision Company
The data set is described as follows: HDAC1 inhibitor screening kit (Biovision), in vitro inhibitory activity. Type of data set: biochemical. As for the experimental part: (§1) The in vitro inhibitory activity of histone deacetylase of the compound was determined according to the instructions of HDAC1 and HDAC6 inhibitor screening kit (Biovision Company).

The next data set deals with T2, HDAC6 (Homo sapiens, UniProt Q9UBN7).
T2 construct: purchased Biovision Company
T2 sequence (Q9UBN7 1-1215): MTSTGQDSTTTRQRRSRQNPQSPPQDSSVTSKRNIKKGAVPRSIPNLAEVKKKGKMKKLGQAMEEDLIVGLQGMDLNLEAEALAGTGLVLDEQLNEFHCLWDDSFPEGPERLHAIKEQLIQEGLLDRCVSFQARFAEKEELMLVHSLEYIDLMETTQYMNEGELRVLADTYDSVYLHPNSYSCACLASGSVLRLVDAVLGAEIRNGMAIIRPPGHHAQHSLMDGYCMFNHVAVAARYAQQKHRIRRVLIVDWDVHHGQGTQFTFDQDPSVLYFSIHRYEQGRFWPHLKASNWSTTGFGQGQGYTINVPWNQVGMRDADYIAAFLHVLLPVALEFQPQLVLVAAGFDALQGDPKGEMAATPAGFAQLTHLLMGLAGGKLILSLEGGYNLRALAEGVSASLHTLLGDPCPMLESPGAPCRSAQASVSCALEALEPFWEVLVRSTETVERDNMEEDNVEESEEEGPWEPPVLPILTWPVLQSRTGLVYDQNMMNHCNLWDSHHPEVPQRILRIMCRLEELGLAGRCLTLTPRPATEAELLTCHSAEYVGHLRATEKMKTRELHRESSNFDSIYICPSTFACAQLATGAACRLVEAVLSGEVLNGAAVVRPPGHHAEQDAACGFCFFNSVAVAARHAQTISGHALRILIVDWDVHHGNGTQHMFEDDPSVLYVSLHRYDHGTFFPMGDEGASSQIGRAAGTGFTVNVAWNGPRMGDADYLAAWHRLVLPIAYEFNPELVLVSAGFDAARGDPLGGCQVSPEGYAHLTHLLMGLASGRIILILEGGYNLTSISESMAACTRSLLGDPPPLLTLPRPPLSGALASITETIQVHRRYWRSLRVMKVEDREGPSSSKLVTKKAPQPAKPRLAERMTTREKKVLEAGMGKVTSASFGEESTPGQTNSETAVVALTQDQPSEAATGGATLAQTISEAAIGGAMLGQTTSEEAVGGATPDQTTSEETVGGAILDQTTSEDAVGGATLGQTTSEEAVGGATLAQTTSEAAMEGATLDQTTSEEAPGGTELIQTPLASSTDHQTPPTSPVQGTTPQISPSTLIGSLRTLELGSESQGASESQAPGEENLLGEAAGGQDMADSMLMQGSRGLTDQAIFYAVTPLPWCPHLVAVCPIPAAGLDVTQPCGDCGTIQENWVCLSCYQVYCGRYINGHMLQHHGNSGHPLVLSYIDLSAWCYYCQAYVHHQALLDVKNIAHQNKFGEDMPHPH
Nature of the data set: HDAC6 inhibitor screening kit (Biovision), in vitro inhibitory activity. Type of data set: biochemical. On the procedure:
as §1

Data set [1] relates to human lung cancer cell line A549. The data set is described as follows: In vitro anti-proliferative activity (CCK8), A549. Type of data set: cell-based. The following applies: A549, 10 μM, 48 hours, CCK8, class symbol, read-out: A549 (Lung cancer) Inh % in 10 μM. As for the experimental part:
(§2) The specific results are shown in the table (unit: […] Test method: The tumor cells in the logarithmic growth phase with good growth status were inoculated into 96-well plates at 4×10^3 per well, and 8 duplicate wells were set up in each group. The cells were cultured in a cell incubator, after the cells adhered to the wall, […]. […] The experiment was repeated 3 times, and the average of the experimental results was taken as the final experimental result, and the inhibition rate was calculated.

Data set [2] can be described thus: Maximum tolerance dose by intragastric administration. Conditions: ICR, mouse, in vivo, po; mice, single intragastric administration, 14 days observation; read-out: maximum tolerated dose. On the procedure: 40 ICR mice, half male and half […], weighing 18 to 20 g, were divided into 4 groups with 10 animals in each group. After 6 hours of fasting, the test samples in each group were taken with sterilized plastic syringe and orally gavaged at a volume of 0.3 mL/10 g. The general physical signs of animals and the death of animals were recorded at 1, 2 and 4 hours after administration. […] The dead animals were dissected to observe whether there were any visible pathological changes in the organs of the animals, and pathological examinations were carried out on suspicious tissues and organs.

The subject of data set [3] is human liver cancer cell line HepG2. Nature of the data set: In vitro anti-proliferative activity (CCK8), HepG2. It counts as cell-based. Conditions: HepG2, 10 μM, 48 hours, CCK8, class symbol, read-out: Hep G2 (Liver cancer) Inh % in 10 μM. As for the experimental part:
as §2

Data set [4] relates to MRC-5 human normal embryo lung fibroblast. Nature of the data set: In vitro anti-proliferative activity (CCK8), MRC-5 normal cells. It counts as cell-based. The following applies: MRC5, 10 μM, 48 hours, CCK8, class symbol, read-out: MRC-5 (Normal cell line) Inh % in 10 μM.
Data set [5] concerns mixed cells and primary neurons in rat cortex. Nature of the data set: Protective effect on HCA-induced neuronal cell damage. Conditions: HCA 5 mmol/L; test concentration 0.1, 1.0 and 10.0 μM; compared with Tubastatin A at the same dose. It counts as cell-based.
The subject of a further data set is glioma cell line U-87MG. The data set is described as follows: In vitro anti-proliferative activity (CCK8), U-87MG. It counts as cell-based. Conditions: Homo sapiens, 10 μM, 48 hours, CCK8, class symbol, read-out: U-87MG (Glioma) Inh % in 10 μM.
In data set [6] the test system is myeloma cell line RPMI 8226. Nature of the data set: In vitro anti-proliferative activity (CCK8), RPMI 8226. Conditions: Homo sapiens, 48 hours, class symbol, read-out: RPMI 8226 (Myeloma) Inh % in 10 μM. It counts as cell-based. As for the experimental part:
as §2

The target of another data set is T3, hERG potassium channels (Homo sapiens, UniProt Q12809).
T3 construct: expressed in transfected cells
T3 sequence (Q12809 whole entry): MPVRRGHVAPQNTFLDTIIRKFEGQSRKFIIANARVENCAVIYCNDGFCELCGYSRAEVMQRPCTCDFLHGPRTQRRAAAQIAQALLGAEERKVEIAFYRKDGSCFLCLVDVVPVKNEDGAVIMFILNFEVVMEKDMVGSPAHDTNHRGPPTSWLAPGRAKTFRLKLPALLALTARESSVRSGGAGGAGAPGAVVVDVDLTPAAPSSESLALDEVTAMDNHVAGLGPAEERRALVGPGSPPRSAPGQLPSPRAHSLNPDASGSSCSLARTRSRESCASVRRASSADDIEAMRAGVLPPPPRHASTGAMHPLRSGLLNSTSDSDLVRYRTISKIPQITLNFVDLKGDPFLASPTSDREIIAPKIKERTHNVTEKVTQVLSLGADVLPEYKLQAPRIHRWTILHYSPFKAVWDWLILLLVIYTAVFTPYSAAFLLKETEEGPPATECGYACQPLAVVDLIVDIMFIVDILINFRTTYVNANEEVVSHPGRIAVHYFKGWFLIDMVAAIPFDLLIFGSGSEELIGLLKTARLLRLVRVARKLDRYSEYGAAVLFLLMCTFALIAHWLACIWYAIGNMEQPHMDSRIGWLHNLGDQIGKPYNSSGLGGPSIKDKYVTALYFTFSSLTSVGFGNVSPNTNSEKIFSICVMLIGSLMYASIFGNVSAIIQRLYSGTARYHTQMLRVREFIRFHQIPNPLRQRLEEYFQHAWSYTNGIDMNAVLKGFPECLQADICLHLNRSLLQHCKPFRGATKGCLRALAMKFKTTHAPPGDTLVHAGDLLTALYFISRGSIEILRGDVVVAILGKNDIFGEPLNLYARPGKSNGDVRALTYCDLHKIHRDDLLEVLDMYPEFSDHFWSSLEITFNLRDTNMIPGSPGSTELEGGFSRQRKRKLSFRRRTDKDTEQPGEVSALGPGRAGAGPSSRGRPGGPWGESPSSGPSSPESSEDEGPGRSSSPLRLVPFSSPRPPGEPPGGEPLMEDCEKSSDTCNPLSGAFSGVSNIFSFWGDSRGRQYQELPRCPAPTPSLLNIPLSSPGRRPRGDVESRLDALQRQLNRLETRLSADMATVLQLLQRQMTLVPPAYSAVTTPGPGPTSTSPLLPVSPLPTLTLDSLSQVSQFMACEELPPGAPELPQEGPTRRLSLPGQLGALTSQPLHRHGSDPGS
The data set is described as follows: hERG potassium channel whole-cell patch clamp. Type of data set: cell-based. Conditions: hERG-HEK293 cells, IKr current. An excerpt: Whole-cell patch clamp technique was used to record the changes of hERG current (IKr) after different concentrations of compounds acted on HEK293 cells (hERG-HEK293 steady-state cells) expressing hERG potassium channels to study the half inhibitory concentration (IC50) of the above compounds on IKr.

T1 sequence (Q13547 whole entry): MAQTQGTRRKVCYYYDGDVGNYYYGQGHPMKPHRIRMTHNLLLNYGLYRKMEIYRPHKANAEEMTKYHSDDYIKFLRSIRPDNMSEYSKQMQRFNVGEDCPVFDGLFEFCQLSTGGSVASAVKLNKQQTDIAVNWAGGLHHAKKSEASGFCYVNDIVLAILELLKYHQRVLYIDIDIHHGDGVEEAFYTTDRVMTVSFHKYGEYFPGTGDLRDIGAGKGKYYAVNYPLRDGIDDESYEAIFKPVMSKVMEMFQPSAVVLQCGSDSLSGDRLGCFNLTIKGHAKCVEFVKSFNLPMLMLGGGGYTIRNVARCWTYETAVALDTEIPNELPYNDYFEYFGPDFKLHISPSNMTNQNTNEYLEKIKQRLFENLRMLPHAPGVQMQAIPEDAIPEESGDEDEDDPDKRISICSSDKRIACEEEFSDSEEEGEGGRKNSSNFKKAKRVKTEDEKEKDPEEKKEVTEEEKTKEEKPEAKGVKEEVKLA

`O=C(NO)c1ccc(CN2CCCCc3ccc(Cl)cc32)cc1` [Compound T-1, 4-((8-chloro-2,3,4,5-tetrahydro-1H-benzo[b]azepin-1-yl)methyl)-N-hydroxybenzamide]: the values for the IC50 against HDAC1 and against HDAC6 were above 500 nM and 37 nM, respectively.

In the case of `O=C(NO)c1ccc(CN2CCCCc3ccc(Br)cc32)cc1` [Compound T-3, 4-((8-bromo-2,3,4,5-tetrahydro-1H-benzo[b]azepin-1-yl)methyl)-N-hydroxybenzamide], the IC50 at HDAC1 worked out at 400 nM; at HDAC6, 43 nM.

In the case of `O=C(NO)c1ccc(CN2CCCCc3cc(F)ccc32)cc1` [Compound T-4, 4-((7-fluoro-2,3,4,5-tetrahydro-1H-benzo[b]azepin-1-yl)methyl)-N-hydroxybenzamide], the IC50 against HDAC1 is 414 nM; on HDAC6, 8.2 nM.

`COc1ccc2c(c1)N(Cc1ccc(C(=O)NO)cc1)CCCC2` [Compound T-6, 4-((8-methoxy-2,3,4,5-tetrahydro-1H-benzo[b]azepin-1-yl)methyl)-N-hydroxybenzamide]: the IC50 on HDAC1 came out at 294 nM; against HDAC6, 8.2 nM.

With `COc1cccc2c1CCCCN2Cc1ccc(C(=O)NO)cc1` [Compound T-7, 4-((6-methoxy-2,3,4,5-tetrahydro-1H-benzo[b]azepin-1-yl)methyl)-N-hydroxybenzamide], the IC50 at HDAC1 is 277 nM; at HDAC6 it was 6.5 nM.

As to `COc1cccc2c1N(Cc1ccc(C(=O)NO)cc1)CCCC2` [Compound T-8, 4-((9-methoxy-2,3,4,5-tetrahydro-1H-benzo[b]azepin-1-yl)methyl)-N-hydroxybenzamide], the figures for the IC50 against HDAC1 and against HDAC6 were 287 nM and 9.2 nM, respectively.

For the compound `COc1cc2c(cc1OC)N(Cc1ccc(C(=O)NO)cc1)CCCC2` [Compound T-9, 4-((7,8-dimethoxy-2,3,4,5-tetrahydro-1H-benzo[b]azepin-1-yl)methyl)-N-hydroxybenzamide], the IC50 on HDAC1 amounted to 269 nM; on HDAC6, 8.6 nM.

Consider `O=C(NO)c1ccc(CN2CCCCc3ccc(-c4ccccc4)cc32)cc1` [Compound T-10, 4-((8-phenyl-2,3,4,5-tetrahydro-1H-benzo[b]azepin-1-yl)methyl)-N-hydroxybenzamide], for which the IC50 at HDAC1 was above 500 nM; at HDAC6, 129 nM.

In the case of `O=C(NO)c1ccc(CN2CCCCc3ccc(-c4ccncc4)cc32)cc1` [Compound T-11, 4-((8-(pyridin-4-yl)-2,3,4,5-tetrahydro-1H-benzo[b]azepin-1-yl)methyl)-N-hydroxybenzamide], the results for the IC50 on HDAC1 and at HDAC6 were above 500 nM and 14.3 nM, respectively.

`O=C(NO)c1ccc(CN2CCCCc3ccc(C4CC4)cc32)cc1` [Compound T-12, 4-((8-cyclopropyl-2,3,4,5-tetrahydro-1H-benzo[b]azepin-1-yl)methyl)-N-hydroxybenzamide]: the results for the IC50 against HDAC1 and on HDAC6 were above 500 nM and 45 nM, respectively.

In the case of `CN(C)c1ccc2c(c1)N(Cc1ccc(C(=O)NO)cc1)CCCC2` [Compound T-13, 4-((8-dimethylamino-2,3,4,5-tetrahydro-1H-benzo[b]azepin-1-yl)methyl)-N-hydroxybenzamide], the IC50 against HDAC1 was above 500 nM; against HDAC6, 85 nM.

Consider `O=C(NO)c1ccc(CN2CCCCc3ccc(N4CCCCC4)cc32)cc1` [Compound T-14, 4-((8-(piperidin-1-yl)-2,3,4,5-tetrahydro-1H-benzo[b]azepin-1-yl)methyl)-N-hydroxybenzamide], for which the IC50 against HDAC1 was above 500 nM; at HDAC6 it was 142 nM.

For the compound `CN1CCCN(Cc2ccc(C(=O)NO)cc2)c2ccccc21` [Compound T-17], the IC50 is above 500 nM on HDAC1 and 7.4 nM at HDAC6.

Take `O=C(NO)c1ccc(CN2CCCC(=O)c3ccccc32)cc1` [Compound T-18, 4-((5-oxo-2,3,4,5-tetrahydro-1H-benzo[b]azepin-1-yl)methyl)-N-hydroxybenzamide]: the IC50 against HDAC1 was determined as 421 nM; at HDAC6 it was 7.2 nM.

Take `CN(C)C1CCCN(Cc2ccc(C(=O)NO)cc2)c2ccccc21` (centres unmarked) [Compound T-21, 4-((5-dimethylamino-2,3,4,5-tetrahydro-1H-benzo[b]azepin-1-yl)methyl)-N-hydroxybenzamide]: the inhibition at 10 µM in data set [1] is 70 to 80%; in [3], 90 to 100%; in data set [4], below 50%; with glioma cell line U-87MG, 80 to 90%; in data set [6], 90 to 100%. Also, in data set [2], the MTD at 14 days was above 1000 mg/kg. The “protective effect against HCA-induced neuronal excitotoxicity (cell survival rate)” value in [5] is “stronger than that of the HDAC6 inhibitor compound Tubastatin A”. On hERG potassium channels, this compound gave an IC50 above 10 µM.

On to `O=C(NO)c1ccc(CN2CCCCc3ccccc32)cc1F` [Compound T-24, 4-((2,3,4,5-tetrahydro-1H-benzo[b]azepin-1-yl)methyl)-2-fluoro-N-hydroxybenzamide], for which the IC50 at HDAC1 was above 500 nM; at HDAC6, 12 nM.

As to `COc1ccc2c(c1)CCN(Cc1ccc(C(=O)NO)cc1)CC2` [Compound T-25, 4-((7-methoxy-1,2,4,5-tetrahydro-3H-benzo[d]azepin-3-yl)methyl)-N-hydroxybenzamide], the IC50 against HDAC1 was above 500 nM; at HDAC6 it was 17 nM.

Take `COc1cccc2c1CCN(Cc1ccc(C(=O)NO)cc1)CC2` [Compound T-26, 4-((6-methoxy-1,2,4,5-tetrahydro-3H-benzo[d]azepin-3-yl)methyl)-N-hydroxybenzamide]: the results for the IC50 on HDAC1 and against HDAC6 were above 500 nM and 97 nM, respectively.

For `COc1ccc(Br)c2c1CCN(Cc1ccc(C(=O)NO)cc1)CC2` [Compound T-27, 4-((6-bromo-9-methoxy-1,2,4,5-tetrahydro-3H-benzo[d]azepin-3-yl)methyl)-N-hydroxybenzamide], the IC50 on HDAC1 stood at 431 nM; at HDAC6, 29 nM.
